Measurements as given in patent US8501732B2, “Aminomethyl quinolone compounds” (Hoffmann-La Roche Inc., priority 2011, dated 2013).

Tests used:
JNK1 = JNK1 (Homo sapiens (Human), UniProt P45983); test: In Vitro JNK1 Assay (TR-FRET, phosphorylation of GST-c-Jun); assay type: biochemical; conditions: 0.2 nM active JNK1 kinase, 26.7 nM GST-c-Jun, 2 μM ATP, 30 min at room temperature
How it was run: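 IC50 derived from percent inhibition across 10 serially diluted concentrations, with TR-FRET detection of phospho-c-Jun via an anti-phospho-c-Jun antibody after EDTA stop. Substrate was GST-c-Jun 1-79, reacted 30 min at room temperature in pH 7.0 HEPES buffer with MgCl2, DTT, vanadate and BSA.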

[1] = system: phospho(Ser63)-c-jun in HK-2 cells; test: Cell-Based Assay for JNK Inhibitors (in-cell ELISA, phospho(Ser63)-c-jun after TNFα); conditions: HK-2 cells (human proximal tubule cells), 60 minutes compound, then 10 ng/mL TNFα for 30 minutes
How it was run: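 HK-2 human proximal tubule cells were seeded at 40,000 cells/well, cultured 24 h, then serum-starved 16–24 h before TNFα stimulation with compound. Phospho(Ser63)-c-jun was quantified by in-cell ELISA on fixed, permeabilised cells, using a rabbit phospho-specific primary (overnight, 4 °C) and an HRP-linked anti-rabbit secondary. Absorbance was read at 450 nm.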

JNK1, sequence (P45983 whole entry): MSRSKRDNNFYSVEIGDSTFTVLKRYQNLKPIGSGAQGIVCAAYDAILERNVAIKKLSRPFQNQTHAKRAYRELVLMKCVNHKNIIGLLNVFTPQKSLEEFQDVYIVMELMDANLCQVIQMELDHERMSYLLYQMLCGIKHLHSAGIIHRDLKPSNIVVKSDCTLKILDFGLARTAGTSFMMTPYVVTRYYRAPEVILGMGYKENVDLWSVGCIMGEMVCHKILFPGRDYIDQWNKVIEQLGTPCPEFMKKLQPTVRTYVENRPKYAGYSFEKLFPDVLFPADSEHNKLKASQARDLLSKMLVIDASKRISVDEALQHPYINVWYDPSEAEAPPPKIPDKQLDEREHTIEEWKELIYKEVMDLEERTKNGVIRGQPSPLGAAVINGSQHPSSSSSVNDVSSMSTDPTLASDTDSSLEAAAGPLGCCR

Row | IC50 (JNK1) [nM] | EC50 [1] [nM] | Structure (SMILES)
1 | 18 | 7800 | COC(=O)c1c(CNC(=O)c2ccc(N3CCOCC3)nc2)c(=O)c2ccc(C(F)(F)F)nc2n1-c1ccccc1 [Example I-152, 3-{[(6-Morpholin-4-yl-pyridine-3-carbonyl)-amino]-methyl}-4-oxo-1-phenyl-7-trifluoromethyl-1,4-dihydro-[1,8]naphthyridine-2-carboxylic acid methyl ester]
2 | 23 | 4600 | COC(=O)c1c(CNC(=O)c2ccc(-c3ncc[nH]3)cc2)c(=O)c2ccc(C(F)(F)F)nc2n1-c1ccccc1 [Example I-153, 3-{[4-(1H-Imidazol-2-yl)-benzoylamino]-methyl}-4-oxo-1-phenyl-7-trifluoromethyl-1,4-dihydro-[1,8]naphthyridine-2-carboxylic acid methyl ester]
3 | 26 | 9900 | COC(=O)c1c(CNC(=O)c2ccc(S(N)(=O)=O)cc2)c(=O)c2ccc(C(F)(F)F)nc2n1-c1ccccc1 [Example I-154, 4-Oxo-1-phenyl-3-[(4-sulfamoyl-benzoylamino)-methyl]-7-trifluoromethyl-1,4-dihydro-[1,8]naphthyridine-2-carboxylic acid methyl ester]
4 | 27 | 14000 | COC(=O)c1c(CNC(=O)c2ccc(C(N)=O)cc2)c(=O)c2ccc(C(F)(F)F)nc2n1-c1ccccc1 [Example I-155, 3-[(4-Carbamoyl-benzoylamino)-methyl]-4-oxo-1-phenyl-7-trifluoromethyl-1,4-dihydro-[1,8]naphthyridine-2-carboxylic acid methyl ester]
5 | 30 | 8700 | COC(=O)c1c(CNC(=O)c2ccc(-c3ccn[nH]3)cc2)c(=O)c2ccc(C(F)(F)F)nc2n1-c1ccccc1 [Example I-156, 4-Oxo-1-phenyl-3-{[4-(2H-pyrazol-3-yl)-benzoylamino]-methyl}-7-trifluoromethyl-1,4-dihydro-[1,8]naphthyridine-2-carboxylic acid methyl ester]
6 | 38 | 16000 | COC(=O)c1c(CNC(=O)c2ccc(-c3nnn(C)n3)cc2)c(=O)c2ccc(C(F)(F)F)nc2n1-c1ccccc1 [Example I-157, 3-{[4-(2-Methyl-2H-tetrazol-5-yl)-benzoylamino]-methyl}-4-oxo-1-phenyl-7-trifluoromethyl-1,4-dihydro-[1,8]-naphthyridine-2-carboxylic acid methyl ester]
7 | 79 | 10000 | COC(=O)c1c(CNC(=O)c2ccc3cc[nH]c3c2)c(=O)c2ccc(C(F)(F)F)nc2n1-c1ccccc1 [Example I-158, 3-{[(1H-Indole-6-carbonyl)-amino]-methyl}-4-oxo-1-phenyl-7-trifluoromethyl-1,4-dihydro-[1,8]naphthyridine-2-carboxylic acid methyl ester]
8 | 170 | 43000 | COC(=O)c1c(CNC(=O)c2ccc(Cl)c(Cl)c2)c(=O)c2ccc(C(F)(F)F)nc2n1-c1ccccc1 [Example I-159, 3-[(3,4-Dichloro-benzoylamino)-methyl]-4-oxo-1-phenyl-7-trifluoromethyl-1,4-dihydro-[1,8]naphthyridine-2-carboxylic acid methyl ester]
9 | 26 | 22000 | COC(=O)c1c(CNC(=O)c2cccc(Cl)c2)c(=O)c2ccc(OC)cc2n1-c1ccccc1 [Example I-160, 3-[(3-Chloro-benzoylamino)-methyl]-7-methoxy-4-oxo-1-phenyl-1,4-dihydro-quinoline-2-carboxylic acid methyl ester]
10 | 32 | 18000 | COC(=O)c1c(CNC(=O)c2cccc(OC)c2)c(=O)c2ccc(OC)cc2n1-c1ccccc1 [Example I-161, 7-Methoxy-3-[(3-methoxy-benzoylamino)-methyl]-4-oxo-1-phenyl-1,4-dihydro-quinoline-2-carboxylic acid methyl ester]
11 | 39 | 38000 | COC(=O)c1c(CNC(=O)c2ccc(F)c(F)c2)c(=O)c2ccc(OC)cc2n1-c1ccccc1 [Example I-162, 7-Methoxy-3-[(3,4-difluorobenzoylamino)-methyl]-4-oxo-1-phenyl-1,4-dihydro-quinoline-2-carboxylic acid methyl ester]
12 | 47 | 14000 | COC(=O)c1c(CNC(=O)c2ccc(C(C)(C)C)cc2)c(=O)c2ccc(OC)cc2n1-c1ccccc1 [Example I-163, 3-[(4-tert-Butyl-benzoylamino)-methyl]-7-methoxy-4-oxo-1-phenyl-1,4-dihydro-quinoline-2-carboxylic acid methyl ester]
13 | 54 | 8900 | COC(=O)c1c(CNC(=O)c2ccc(OC)cc2)c(=O)c2ccc(OC)cc2n1-c1ccccc1 [Example I-164, 3-[(4-methoxy-benzoylamino)-methyl]-7-methoxy-4-oxo-1-phenyl-1,4-dihydro-quinoline-2-carboxylic acid methyl ester]
14 | 65 | 100000 | COC(=O)c1c(CNC(=O)c2cccnc2)c(=O)c2ccc(OC)cc2n1-c1ccccc1 [Example I-165, 7-Methoxy-4-oxo-1-phenyl-3-{[(pyridine-3-carbonyl)-amino]-methyl}-1,4-dihydro-quinoline-2-carboxylic acidmethyl ester]
15 | 73 | 100000 | COC(=O)c1c(CNC(=O)c2ccc(F)cc2)c(=O)c2ccc(OC)cc2n1-c1ccccc1 [Example I-166, 3-[(4-Fluoro-benzoylamino)-methyl]-7-methoxy-4-oxo-1-phenyl-1,4-dihydro-quinoline-2-carboxylic acid methyl ester]
16 | 100 | 32000 | COC(=O)c1c(CNC(=O)c2ccc(Cl)cc2)c(=O)c2ccc(OC)cc2n1-c1ccccc1 [Example I-168, 3-[(4-Chloro-benzoylamino)-methyl]-7-methoxy-4-oxo-1-phenyl-1,4-dihydro-quinoline-2-carboxylic acid methyl ester]
17 | 4 | 2400 | COC(=O)c1c(CNC(=O)c2ccc(N3CCOCC3)nc2)c(=O)c2ccc(F)cc2n1-c1ccccc1 [Example I-169, 7-Fluoro-3-{[(6-morpholin-4-yl-pyridine-3-carbonyl)-amino]-methyl}-4-oxo-1-phenyl-1,4-dihydro-quinoline-2-carboxylic acid methyl ester]
18 | 10 | 44000 | COC(=O)c1c(CNC(=O)c2ccc(Cl)nc2)c(=O)c2ccc(F)cc2n1-c1ccccc1 [Example I-170, 3-{[(6-Chloro-pyridine-3-carbonyl)-amino]-methyl}-7-fluoro-4-oxo-1-phenyl-1,4-dihydroquinoline-2-carboxylic acid methyl ester]
19 | 23 | 88000 | COc1cc2ncnc(NCc3cn(-c4ccccc4)c4cc(Cl)ccc4c3=O)c2cc1OC [Example I-171, 7-Chloro-3-[(6,7-dimethoxy-quinazolin-4-ylamino)-methyl]-1-phenyl-1H-quinolin-4-one]
20 | 79 | 100000 | O=c1c(CNc2ncnc3cc(F)ccc23)cn(-c2ccccc2)c2cc(Cl)ccc12 [Example I-172, 7-Chloro-3-[(7-fluoro-quinazolin-4-ylamino)-methyl]-1-phenyl-1H-quinolin-4-one]
21 | 60 | 8400 | COC(=O)c1c(CNc2ncnc3ccccc23)c(=O)c2ccc(Cl)cc2n1-c1ccccc1 [Example I-208, 7-Chloro-4-oxo-1-phenyl-3-(quinazolin-4-ylaminomethyl)-1,4-dihydro-quinoline-2-carboxylic acid methyl ester]
